# According to PubChem BioAssay AID1963965 (Molecular Pharmacology Branch, DTP, NCI, 2024):
# System: 996289-038-R-J1-PDC spheroid viability
# Test: Anticancer human tumor 996289-038-R-J1-PDC patient-derived colon adenocarcinoma cell line growth inhibition [PI3K]
# Conditions: spheroids with HUVEC and MSC; for IC50: curve of first compound; for viability, T/C: stronger effect = lower value
# How it was run: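 Tumor cells grown as multi-cell spheroids with HUVEC endothelial cells and MSC fibroblast-like stroma were treated with targeted agents combined with inavolisib, alpelisib, duvelisib or copanlisib. Doses fell in half-log steps from near clinical Cmax, else from 10 microM. Viability was measured.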
# [1] = second compound 0.0316 µM, first compound 0.000316 µM
# [2] = second compound 0.0316 µM, first compound 0.001 µM
# [3] = second compound 0.0316 µM, first compound 0.00316 µM
# [4] = second compound 0.0316 µM, first compound 0.01 µM
# [5] = second compound 0.0316 µM, first compound 0.0316 µM
# [6] = second compound 0.0316 µM, first compound 0.1 µM
# [7] = second compound 0.1 µM, first compound 0.000316 µM
# [8] = second compound 0.1 µM, first compound 0.001 µM
# [9] = second compound 0.1 µM, first compound 0.00316 µM
# [10] = second compound 0.1 µM, first compound 0.01 µM
# [11] = second compound 0.1 µM, first compound 0.0316 µM
# [12] = second compound 0.1 µM, first compound 0.1 µM
# [13] = second compound 0.316 µM, first compound 0.000316 µM
# [14] = second compound 0.316 µM, first compound 0.001 µM
# [15] = second compound 0.316 µM, first compound 0.00316 µM
# [16] = second compound 0.316 µM, first compound 0.01 µM
# [17] = second compound 0.316 µM, first compound 0.0316 µM
# [18] = second compound 0.316 µM, first compound 0.1 µM
# [19] = second compound 1 µM, first compound 0.000316 µM
# [20] = second compound 1 µM, first compound 0.001 µM
# [21] = second compound 1 µM, first compound 0.00316 µM
# [22] = second compound 1 µM, first compound 0.01 µM
# [23] = second compound 1 µM, first compound 0.0316 µM
# [24] = second compound 1 µM, first compound 0.1 µM
# [25] = second compound 3.16 µM, first compound 0.000316 µM
# [26] = second compound 3.16 µM, first compound 0.001 µM
# [27] = second compound 3.16 µM, first compound 0.00316 µM
# [28] = second compound 3.16 µM, first compound 0.01 µM
# [29] = second compound 3.16 µM, first compound 0.0316 µM
# [30] = second compound 3.16 µM, first compound 0.1 µM
# [31] = second compound 10 µM, first compound 0.000316 µM
# [32] = second compound 10 µM, first compound 0.001 µM
# [33] = second compound 10 µM, first compound 0.00316 µM
# [34] = second compound 10 µM, first compound 0.01 µM
# [35] = second compound 10 µM, first compound 0.0316 µM
# [36] = second compound 10 µM, first compound 0.1 µM
# 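Note: spheroids exposed to compounds for seven days before viability read.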
# 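Throughout, for viability, T/C: luminescence used as a proxy for viable cell amount; percent viability relative to DMSO vehicle control as 100%.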
smiles,measurement,setting,value
CC(=O)c1c(C)c2cnc(Nc3ccc(N4CCNCC4)cn3)nc2n(C2CCCC2)c1=O + CC(Nc1ncnc2nc[nH]c12)c1cc2cccc(Cl)c2c(=O)n1-c1ccccc1,IC50,second compound 0.0316 µM,> 100 nM
same,IC50,second compound 0.1 µM,> 100 nM
same,IC50,second compound 0.316 µM,> 100 nM
same,IC50,second compound 1 µM,> 100 nM
same,IC50,second compound 3.16 µM,> 100 nM
same,IC50,second compound 10 µM,> 100 nM
same,"viability, T/C",[1],104%
same,"viability, T/C",[2],96.3%
same,"viability, T/C",[3],93.2%
same,"viability, T/C",[4],92%
same,"viability, T/C",[5],99.2%
same,"viability, T/C",[6],84.2%
same,"viability, T/C",[7],96.4%
same,"viability, T/C",[8],97.5%
same,"viability, T/C",[9],101%
same,"viability, T/C",[10],102%
same,"viability, T/C",[11],107%
same,"viability, T/C",[12],90.1%
same,"viability, T/C",[13],93.8%
same,"viability, T/C",[14],105%
same,"viability, T/C",[15],102%
same,"viability, T/C",[16],97.7%
same,"viability, T/C",[17],108%
same,"viability, T/C",[18],86.7%
same,"viability, T/C",[19],106%
same,"viability, T/C",[20],102%
same,"viability, T/C",[21],90.3%
same,"viability, T/C",[22],95.2%
same,"viability, T/C",[23],92.4%
same,"viability, T/C",[24],89.8%
same,"viability, T/C",[25],102%
same,"viability, T/C",[26],91.3%
same,"viability, T/C",[27],88.4%
same,"viability, T/C",[28],95.9%
same,"viability, T/C",[29],103%
same,"viability, T/C",[30],84.5%
same,"viability, T/C",[31],87.5%
same,"viability, T/C",[32],84.4%
same,"viability, T/C",[33],88.2%
same,"viability, T/C",[34],86.7%
same,"viability, T/C",[35],104%
same,"viability, T/C",[36],72.7%
CC(C)n1nc(-c2ccc3oc(N)nc3c2)c2c(N)ncnc21 + CC(Nc1ncnc2nc[nH]c12)c1cc2cccc(Cl)c2c(=O)n1-c1ccccc1,IC50,second compound 0.0316 µM,80.1 nM
same,IC50,second compound 0.1 µM,62 nM
same,IC50,second compound 0.316 µM,64.9 nM
same,IC50,second compound 1 µM,58 nM
same,IC50,second compound 3.16 µM,71.7 nM
same,IC50,second compound 10 µM,62.9 nM
same,"viability, T/C",[1],107%
same,"viability, T/C",[2],88.6%
same,"viability, T/C",[3],97.6%
same,"viability, T/C",[4],86.7%
same,"viability, T/C",[5],82.7%
same,"viability, T/C",[6],42.3%
same,"viability, T/C",[7],124%
same,"viability, T/C",[8],96.5%
same,"viability, T/C",[9],96.1%
same,"viability, T/C",[10],95.8%
same,"viability, T/C",[11],70.8%
same,"viability, T/C",[12],34.5%
same,"viability, T/C",[13],105%
same,"viability, T/C",[14],87.4%
same,"viability, T/C",[15],84.6%
same,"viability, T/C",[16],87.3%
same,"viability, T/C",[17],73.9%
same,"viability, T/C",[18],36.2%
same,"viability, T/C",[19],98.4%
same,"viability, T/C",[20],97.9%
same,"viability, T/C",[21],85.9%
same,"viability, T/C",[22],84.6%
same,"viability, T/C",[23],65.7%
same,"viability, T/C",[24],35.9%
same,"viability, T/C",[25],87.5%
same,"viability, T/C",[26],87.5%
same,"viability, T/C",[27],86.2%
same,"viability, T/C",[28],89.5%
same,"viability, T/C",[29],76.8%
same,"viability, T/C",[30],38.9%
same,"viability, T/C",[31],85%
same,"viability, T/C",[32],82%
same,"viability, T/C",[33],82.9%
same,"viability, T/C",[34],79%
same,"viability, T/C",[35],68.8%
same,"viability, T/C",[36],37.2%
